Literature values, collected in PubChem BioAssay AID1259409 (Chemical Carcinogenesis Research Information System (CCRIS), 2018).

Test system: rodent chemically induced tumor inhibition, incidence and multiplicity
Assay: CCRIS tumor inhibitor studies
Details: Route [Inhibitor]: ORAL, Promoter: NONE USED

Cc1c(-c2cnccn2)ssc1=S
tumour outcome (control, treated, inhibition, significance) (Carcinogen: AZOXYMETHANE, 25843-45-2, Dose [Inhibitor]: 0, 200 PPM IN DIET FOR 56 WK BEGINNING 2 WK PRIOR TO CARCINOGEN TREATMENT (STUDY DURATION: 56 WK), Species: RAT, Strain/Sex: F344/MALE, Target Tissue: Type of Lesion: SMALL INTESTINE (DISTAL): TUMOR, Dose [Carcinogen]: 15 MG/KG 1/WK FOR 2 WK): 12%, 5%, 58%, not significant
tumour outcome (control, treated, inhibition, significance) (Carcinogen: AZOXYMETHANE, 25843-45-2, Dose [Inhibitor]: 0, 200 PPM IN DIET FOR 56 WK BEGINNING 2 WK PRIOR TO CARCINOGEN TREATMENT (STUDY DURATION: 56 WK), Species: RAT, Strain/Sex: F344/MALE, Target Tissue: Type of Lesion: SMALL INTESTINE (PROXIMAL): TUMOR, Dose [Carcinogen]: 15 MG/KG 1/WK FOR 2 WK): 33%, 14%, 58%, not significant
tumour outcome (control, treated, inhibition, significance) (Carcinogen: AZOXYMETHANE, 25843-45-2, Dose [Inhibitor]: 0, 400 PPM IN DIET 7 WK PRIOR TO CARCINOGEN TREATMENT AND CONTINUING FOR STUDY DURATION (STUDY DURATION: 59 WK), Species: RAT, Strain/Sex: F344/MALE, Target Tissue: Type of Lesion: COLON: ADENOCARCINOMA, Dose [Carcinogen]: 15 MG/KG 1/WK FOR 2 WK): 72%, 50%, 31%, p<0.05
tumour outcome (control, treated, inhibition, significance) (Carcinogen: AZOXYMETHANE, 25843-45-2, Dose [Inhibitor]: 0, 400 PPM IN DIET 7 WK PRIOR TO CARCINOGEN TREATMENT AND CONTINUING FOR STUDY DURATION (STUDY DURATION: 59 WK), Species: RAT, Strain/Sex: F344/MALE, Target Tissue: Type of Lesion: COLON: ADENOMA, Dose [Carcinogen]: 15 MG/KG 1/WK FOR 2 WK): 14%, 8%, 43%, not calculated
tumour outcome (control, treated, inhibition, significance) (Carcinogen: AZOXYMETHANE, 25843-45-2, Dose [Inhibitor]: 0, 400 PPM IN DIET 7 WK PRIOR TO CARCINOGEN TREATMENT AND CONTINUING FOR STUDY DURATION (STUDY DURATION: 59 WK), Species: RAT, Strain/Sex: F344/MALE, Target Tissue: Type of Lesion: SMALL INTESTINE: ADENOCARCINOMA, Dose [Carcinogen]: 15 MG/KG 1/WK FOR 2 WK): 50%, 8%, 84%, p<0.001
tumour outcome (control, treated, inhibition, significance) (Carcinogen: AZOXYMETHANE, 25843-45-2, Dose [Inhibitor]: 0, 400 PPM IN DIET 7 WK PRIOR TO CARCINOGEN TREATMENT AND CONTINUING FOR STUDY DURATION (STUDY DURATION: 59 WK), Species: RAT, Strain/Sex: F344/MALE, Target Tissue: Type of Lesion: SMALL INTESTINE: ADENOMA, Dose [Carcinogen]: 15 MG/KG 1/WK FOR 2 WK): 3%, 0%, 100%, not calculated
tumour outcome (control, treated, inhibition, significance) (Carcinogen: AZOXYMETHANE, 25843-45-2, Dose [Inhibitor]: 0, 400 PPM IN DIET FOR 56 WK BEGINNING 2 WK PRIOR TO CARCINOGEN TREATMENT (STUDY DURATION: 56 WK), Species: RAT, Strain/Sex: F344/MALE, Target Tissue: Type of Lesion: COLON (DISTAL): TUMOR, Dose [Carcinogen]: 15 MG/KG 1/WK FOR 2 WK): 47%, 36%, 23%, not significant
tumour outcome (control, treated, inhibition, significance) (Carcinogen: AZOXYMETHANE, 25843-45-2, Dose [Inhibitor]: 0, 400 PPM IN DIET FOR 56 WK BEGINNING 2 WK PRIOR TO CARCINOGEN TREATMENT (STUDY DURATION: 56 WK), Species: RAT, Strain/Sex: F344/MALE, Target Tissue: Type of Lesion: COLON (PROXIMAL): TUMOR, Dose [Carcinogen]: 15 MG/KG 1/WK FOR 2 WK): 39%, 36%, 8%, not significant
tumour outcome (control, treated, inhibition, significance) (Carcinogen: AZOXYMETHANE, 25843-45-2, Dose [Inhibitor]: 0, 400 PPM IN DIET FOR 56 WK BEGINNING 2 WK PRIOR TO CARCINOGEN TREATMENT (STUDY DURATION: 56 WK), Species: RAT, Strain/Sex: F344/MALE, Target Tissue: Type of Lesion: SMALL INTESTINE (PROXIMAL): TUMOR, Dose [Carcinogen]: 15 MG/KG 1/WK FOR 2 WK): 33%, 5%, 85%, p<0.05
tumour outcome (control, treated, inhibition, significance) (Carcinogen: AZOXYMETHANE, 25843-45-2, Dose [Inhibitor]: 0, 400 PPM IN DIET FOR 56 WK BEGINNING 2 WK PRIOR TO CARCINOGEN TREATMENT (STUDY DURATION: 56 WK), Species: RAT, Strain/Sex: F344/MALE, Target Tissue: Type of Lesion: SMALL INTESTINE(DISTAL): TUMOR, Dose [Carcinogen]: 15 MG/KG 1/WK FOR 2 WK): 12%, 5%, 58%, not significant
tumour outcome (control, treated, inhibition, significance) (Carcinogen: AZOXYMETHANE, 25843-45-2, Dose [Inhibitor]: O, 200 PPM IN DIET 7 WK PRIOR TO CARCINOGEN TREATMENT AND CONTINUING FOR STUDY DURATION (STUDY DURATION: 59 WK), Species: RAT, Strain/Sex: F344/MALE, Target Tissue: Type of Lesion: SMALL INTESTINE, ADENOMA, Dose [Carcinogen]: 15 MG/KG 1/WK FOR 2 WK): 3%, 0%, 100%, not calculated
tumour outcome (control, treated, inhibition, significance) (Carcinogen: BENZO[A]PYRENE, 50-32-8, Dose [Inhibitor]: 0, 180 PPM IN DIET FOR 36 WK BEGINNING 48 HR PRIOR TO CARCINOGEN DOSE (STUDY DURATION: 36 WK), Species: MOUSE, Strain/Sex: STRAIN-A/FEMALE, Target Tissue: Type of Lesion: LUNG: TUMOR, Dose [Carcinogen]: 100 MG/KG IN 0.1 ML OF TRICAPRYLIN ONCE): 100%, 100%, 0%, not significant
tumour outcome (control, treated, inhibition, significance) (Carcinogen: BENZO[A]PYRENE, 50-32-8, Dose [Inhibitor]: 0, 360 PPM IN DIET FOR 36 WK BEGINNING 48 HR PRIOR TO CARCINOGEN DOSE (STUDY DURATION: 36 WK), Species: MOUSE, Strain/Sex: STRAIN-A/FEMALE, Target Tissue: Type of Lesion: LUNG: TUMOR, Dose [Carcinogen]: 100 MG/KG IN 0.1 ML OF TRICAPRYLIN ONCE): 100%, 100%, 0%, not significant
tumour outcome (control, treated, inhibition, significance) (Carcinogen: DIETHYLNITROSAMINE, 55-18-5, Dose [Inhibitor]: 0, 300 MG/KG DIET FOR DURATION OF STUDY BEGINNING 1 WK PRIOR TO CARCINOGEN TREATMENT (STUDY DURATION: 25 WK), Species: HAMSTER, Strain/Sex: SYRIAN/MALE, Target Tissue: Type of Lesion: LUNG: CARCINOMA, Dose [Carcinogen]: 17.8 MG/KG BW 2/WK FOR 20 WK): 50%, 33%, 34%, not significant
tumour outcome (control, treated, inhibition, significance) (Carcinogen: DIETHYLNITROSAMINE, 55-18-5, Dose [Inhibitor]: 0, 300 MG/KG DIET FOR DURATION OF STUDY BEGINNING 1 WK PRIOR TO CARCINOGEN TREATMENT (STUDY DURATION: 25 WK), Species: HAMSTER, Strain/Sex: SYRIAN/MALE, Target Tissue: Type of Lesion: TRACHEA: PAPILLOMA, Dose [Carcinogen]: 17.8 MG/KG BW 2/WK FOR 20 WK): 95%, 85%, 11%, not significant
tumour outcome (control, treated, inhibition, significance) (Carcinogen: DIETHYLNITROSAMINE, 55-18-5, Dose [Inhibitor]: 0, 600 MG/KG DIET FOR DURATION OF STUDY BEGINNING 1 WK PRIOR TO CARCINOGEN TREATMENT (STUDY DURATION: 25 WK), Species: HAMSTER, Strain/Sex: SYRIAN/MALE, Target Tissue: Type of Lesion: LUNG: CARCINOMA, Dose [Carcinogen]: 17.8 MG/KG BW 2/WK FOR 20 WK): 60%, 0%, 100%, p<0.0001
